Values quoted from earlier work in patent US6380174B1, “Slime-removing composition for paper manufacture and method of controlling slime using the same” (SK Corporation, priority 1999, dated 2002).

System: slime-causing microorganisms

N#CC(Br)(Br)C(N)=O [DBNPA, 2,2-dibromo-3-nitrilepropionamide]
amount required for early sterilization (after 3 hours): 50 ppm
amount necessary for sufficient sterilizing activity (after 24 hours): 5 ppm
